Data from patent US20110237658A1, “COMPOUND AND METHOD FOR THE TREATMENT OF PAIN” (KRISHANI BIOSCIENCES (P) LTD, priority 2010, published 2011).

Tested on: spinal nerve ligation model for neuropathic pain in rats
Assay: Spinal nerve ligation (Chung) model of neuropathic pain, Von Frey test
Type: in vivo
Details: 150 mg/kg IP once daily from study day 14 to 21; 2 hours post-treatment on study days 14 and 21; male SD rats
Excerpt: Experimental animals were male SD rats with a starting weight of 230-250 grams. Total number of animals were n=90 for surgery and n=60 after selection. The animals were caged in groups of 3 in a temperature and humidity controlled area. They were maintained on a 12 hr light/dark cycle and had ad libitum access to food and water.
Neuropathic pain inducement was done by following principles of Chung induced model. The SD rats were anesthetized using ketamine/xylazine sodium. The rats were shaved and placed in prone position for surgery. The L5-L6 spinal nerves were surgically litigated. The rats were returned to their cages for recuperation and recovery under comfortable warm conditions using heat lamps.
After seven days of surgery a pre selection was performed. Animals that indicate signs of post operative pain were to be selected to proceed. Pain is detected by observing when one or more of the criteria are met as follows. Licking of the operated paw, accompanied by gentle biting or pulling on the nails with the mouth; placing the leg in the air; bearing weight on the side contra-lateral to the nerve injury; deformities of the hind paw and abnormal posture and walking; weakness of the left hind paw. […] However, the animal must be able to move its leg to ensure that the L4 spinal nerve is intact. If the animal cannot move its leg, it was excluded from the study. […]

With `CC(OC(=O)CCCC[C@@H]1CCSS1)OC(=O)NC(C)C(C)COC(=O)c1ccccc1` (stereo partly shown) [final compound of formula 1] the “efficacy as reflected in the parameters of mechanical allodynia (Von Frey)” value was “effective”.
